Measured values from patent US8470381B2, “Spinosyn antifouling compositions, methods of use thereof and articles protected from attachment of biofouling organisms” (Entarco S.A., priority 2008, dated 2013).
Where “and” joins values, the source holds several entries; their conditions need not be identical. Equal entries are not always repeated. Entries after “also recorded” stand apart in the source; their conditions may differ.

Tests used:
Aeromonas sp (Ae) = test: Agar diffusion antimicrobial assay against marine bacteria associated with Balanus amphitrite; format: cell-based; settings: isolate Ae1, 24 hours
Procedure: (§1) The effect of spinosad as a bacteriostatic compound was tested against four bacterial species using standard agar diffusion techniques, as described by Avelin et al., J. Chem. Ecol., 19(10), 2155-67 (1993). The bacteria used in the test were as follows: Aeromonas sp (Ae); Alcaligenes sp (Al); Flavobacterium sp (F); and Vibrio sp (V);
(§2) The agar diffusion technique follows the original method by Acar (1980). In a sterilized petri dish 1 ml of 12 hour old nutrient broth culture, comprising of 3.7% of marine broth in distilled water, of each marine bacterial species was transferred along with 20 ml of antibiotic agar medium.
(§3) Sterilized Whatman No. 1 paper discs (6.25 mm diameter) were loaded with the test solution (2.4% w/w Tracer in distilled water) at concentrations calculated in pure spinosad ranging from 10^−1 mg/10 μl to 10^−4 mg/10 μl. Control discs were loaded with only the vehicle. After 24 hours of exposure to the test solution, the zone of inhibition, i.e. the area around the disc devoid of marine bacterial growth was measured by determining the distance from the edge of the disc to the edge of the area showing no bacterial growth (mm).

Alcaligenes sp (Al) = test: as above; format: cell-based; settings: 24 hours
Procedure: as §1, §2, §3

Flavobacterium sp (F) = test: as above; format: cell-based; settings: 24 hours
Procedure: as §1, §2, §3

Vibrio sp (V) = test: as above; format: cell-based; settings: 24 hours
Procedure: as §1, §2, §3

[1] = tested on: barnacle cyprids (Balanus amphitrite Darwin); test: Barnacle cyprid settlement assay and EC50 determination; format: in vivo; settings: for % of set: dishes a, b, c and Total (mean), control mean 78
Text: The barnacle, Balanus amphitrite Darwin, is the most ubiquitous hard fouling organism found in all marine ecosystems, particularly in ports visited by commercial shipping. The methods used in this evaluation have been described in detail in a number of publications (Rittschof D, Clare A S, Gerhart D J, Avelin Mary, Bonavetura J (1991) Barnacle in vitro assays for biologically active substances: toxicity and settlement assays using mass cultured Balanus amphitrite amphitrite Darwin. Biofouling 6:115-122.
The barnacle adults are cultured in the laboratory and allowed to spawn naturally. The larvae are harvested and grown in artificial culture systems until they reach the cyprid stage at which time the larvae become competent to attach to surfaces. Once attached, the cyprids transform into a pinhead barnacle, thus becoming permanently attached to the surface.
The sample solution tested was a 23.2% w/w solution of Tracer in distilled water (equivalent to 10% w/w in pure spinosad or 100 mg spinosad/ml). The sample was stirred prior to making serial dilutions.
The data are summarized in the Tables 2 and 3 below along with the calculations for the EC50. […] Thereafter, there was dose dependent attachment from 10^−5 and at lower concentrations, only reaching control values at […]. The EC50 calculation via probit analysis show an EC50 of 7×10^−8 mg/ml.
Additional notes to the data below: 1. Set means the total number of cyprid larvae that have settled and attached on the surface of the petri dish. 2. Non-Set means the total number of cyprids that remain swimming in the seawater and not settled on the surface. 3. Data are expressed as the percentage of cyprids that settled on the surface. 4. Data are summarized and the mean, standard deviation (SD) and the standard error of the mean (SE) are calculated for samples. 5. Tests were conducted in replicates of three dishes per study group; each dish containing anywhere from 75 to 100 cyprids.

Dunaliella tertiolecta = test: Inhibition of the growth of the fouling microalgae in flask culture; format: cell-based; settings: 10-^2 to 10^−9 mg spinosad/ml; cells counted each day
Procedure: A water emulsion containing 23.2% w/w Tracer®=10% spinosad was used at the start of this assay. Dunaliella tertiolecta was maintained in stock cultures in 20 ml test tubes as seed cultures and maintained on seven day transfer cycle. The marine micro-algae were inoculated into 250 ml conical flasks containing 100 ml of filtered, sterilized seawater in F/2-Guillard-1975 growth medium. The initial 10% spinosad emulsion (coded Entarco 8205 10%), was further dissolved in distilled water and added at various concentrations to each algal culture for final concentrations ranging from 10-^2 mg spinosad/ml to 10^−9 mg spinosad/ml. Controls consisted of algal culture without the test solution. Each test group was comprised of 3 flasks.
The typical culture goes through four phases. Lag phase is characterized by little or no multiplication of the cells. Log phase or exponential phase is when there is a rapid increase in the rate of cell division. During the next phase, called stationary phase, the number of living cells remain constant and there is no further growth. […] The growth of the algal cells in each flask was counted each day by haemocytometer. The entire growth and decline of the culture in the presence or absence of spinosad was determined (Targett, 1988 Allelochemistry in marine organisms: Chemical fouling and antifouling strategies).

spinosad
zone of inhibition (Aeromonas sp (Ae); 10^−1 mg/10 μl (10000 ppm spinosad)): 7.5 mm | zone of inhibition (Aeromonas sp (Ae); 10^−2 mg/10 μl (1000 ppm spinosad)): 7 mm | zone of inhibition (Aeromonas sp (Ae); 10^−3 mg/10 μl (100 ppm spinosad)): 7 mm | zone of inhibition (Aeromonas sp (Ae); 10^−4 mg/10 μl (10 ppm spinosad)): 5.5 mm | zone of inhibition (Alcaligenes sp (Al); isolate Al1, 10^−1 mg/10 μl (10000 ppm spinosad)): 8 mm | zone of inhibition (Alcaligenes sp (Al); isolate Al1, 10^−2 mg/10 μl (1000 ppm spinosad)): 6 mm | zone of inhibition (Alcaligenes sp (Al); isolate Al1, 10^−3 mg/10 μl (100 ppm spinosad)): 6 mm | zone of inhibition (Alcaligenes sp (Al); isolate Al1, 10^−4 mg/10 μl (10 ppm spinosad)): 6 mm | zone of inhibition (Alcaligenes sp (Al); isolate Al2, 10^−1 mg/10 μl (10000 ppm spinosad)): 7 mm | zone of inhibition (Alcaligenes sp (Al); isolate Al2, 10^−2 mg/10 μl (1000 ppm spinosad)): 6.5 mm | zone of inhibition (Alcaligenes sp (Al); isolate Al2, 10^−3 mg/10 μl (100 ppm spinosad)): 5.5 mm | zone of inhibition (Alcaligenes sp (Al); isolate Al2, 10^−4 mg/10 μl (10 ppm spinosad)): 5.5 mm | zone of inhibition (Flavobacterium sp (F); isolate F1, 10^−1 mg/10 μl (10000 ppm spinosad)): 7.5 mm | zone of inhibition (Flavobacterium sp (F); isolate F1, 10^−2 mg/10 μl (1000 ppm spinosad)): 6 mm | zone of inhibition (Flavobacterium sp (F); isolate F1, 10^−3 mg/10 μl (100 ppm spinosad)): 6 mm | zone of inhibition (Flavobacterium sp (F); isolate F1, 10^−4 mg/10 μl (10 ppm spinosad)): 6 mm | zone of inhibition (Flavobacterium sp (F); isolate F2, 10^−1 mg/10 μl (10000 ppm spinosad)): 7.5 mm | zone of inhibition (Flavobacterium sp (F); isolate F2, 10^−2 mg/10 μl (1000 ppm spinosad)): 6 mm | zone of inhibition (Flavobacterium sp (F); isolate F2, 10^−3 mg/10 μl (100 ppm spinosad)): 6 mm | zone of inhibition (Flavobacterium sp (F); isolate F2, 10^−4 mg/10 μl (10 ppm spinosad)): 6 mm | zone of inhibition (Vibrio sp (V); isolate V1, 10^−1 mg/10 μl (10000 ppm spinosad)): 8 mm | zone of inhibition (Vibrio sp (V); isolate V1, 10^−2 mg/10 μl (1000 ppm spinosad)): 5.5 mm | zone of inhibition (Vibrio sp (V); isolate V1, 10^−3 mg/10 μl (100 ppm spinosad)): 5.5 mm | zone of inhibition (Vibrio sp (V); isolate V1, 10^−4 mg/10 μl (10 ppm spinosad)): 5.5 mm | zone of inhibition (Vibrio sp (V); isolate V2, 10^−1 mg/10 μl (10000 ppm spinosad)): 8 mm | zone of inhibition (Vibrio sp (V); isolate V2, 10^−2 mg/10 μl (1000 ppm spinosad)): 7 mm | zone of inhibition (Vibrio sp (V); isolate V2, 10^−3 mg/10 μl (100 ppm spinosad)): 6 mm | zone of inhibition (Vibrio sp (V); isolate V2, 10^−4 mg/10 μl (10 ppm spinosad)): 6 mm | % of set ([1]; 0.1 mg spinosad/ml): 0% | % of set ([1]; 10−^2 mg spinosad/ml): 0% | % of set ([1]; 10−^3 mg spinosad/ml): 0% | % of set ([1]; 10−^4 mg spinosad/ml): 0% | % of set ([1]; 10−^5 mg spinosad/ml): 7% and 9% and 12% | % of set ([1]; 10−^7 mg spinosad/ml): 31% and 34% and 42% | % of set ([1]; 10−^8 mg spinosad/ml): 52% and 57% and 50% | % of set ([1]; 10−^9 mg spinosad/ml): 63% and 61% and 70% | % of set ([1]; 10−^10 mg spinosad/ml): 77% and 78% and 71% | % of set ([1]; 10−^11 mg spinosad/ml): 77% and 79% and 72% | mortality of cyprids ([1]; all concentrations tested): absence of any mortality; also recorded: no mortality seen at all concentrations tested | cyprid settlement ([1]; from 10^−1 to 10^−4 mg/ml): no cyprid settlement | mortality of cyprids ([1]; highest concentration used (0.1 mg spinosad/ml)): no mortality was observed | EC50 on the settlement of barnacle cyprids ([1]; probit analysis): 0.07 ng/mL | growth of Dunaliella tertiolecta (FIG. 1) (Dunaliella tertiolecta): significant microalgae inhibitory properties which are dose dependent
